Several values for one entry are separate records, joined by “and”; a condition that tells them apart may be missing. Equal values may be shown once. Entries after “also recorded” stand apart in the source; their conditions may differ. Read-outs that look alike come from different tables or passages of the source.
Assays:
[1] = molecular target: T1, Poly(ADP-ribose) polymerase-1 (Mus musculus, UniProt P11103); assay: in vivo; format: in vivo, mice
[2] = system: Poly(ADP-ribose) polymerase-1; assay: in vivo; format: in vivo, mice; conditions: for PARP activity in tumours, % of control: 7 days
[3] = molecular target: Poly(ADP-ribose) polymerase-1 (Homo sapiens, UniProt P09874); assay: PARP activity in cancer cell lines after a 30-min pulse of rucaparib; format: cell-based
PARP [4] = molecular target: T2, PARP (Homo sapiens, UniProt P09874); conditions: patients, after five daily doses; ref Plummer et al, 2008; cited from earlier work
[5] = molecular target: T1, Poly(ADP-ribose) polymerase-1; format: in vivo, mice; conditions: 24 h after single dose 150 mg kg−1 p.o. or 50 mg kg−1 i.p.
[6] = system: Poly(ADP-ribose) polymerase-1; format: in vivo, mice
MX-1 xenografts [7] = assay: Efficacy study in mice bearing MX-1 xenografts; format: in vivo; conditions: MX-1 tumour-bearing mice
[8] = Plasma pharmacokinetics and tissue distribution in Capan-1 tumour-bearing mice; format: in vivo
Capan-1 xenografts [9] = conditions: ref Drew et al, 2011; cited from earlier work
[10] = [14C]rucaparib uptake and retention in SW620 cells; format: in vitro ADME, human; conditions: human, SW620 cells
SW620 cells = assay: [14C]rucaparib uptake and retention in SW620 cells; format: in vitro ADME, human; conditions: for effect of transport inhibitor on rucaparib uptake: ouabain 30 or 100 μM, cytochalasin B 0.1 or 1 μM, dipyridamole 10 or 100 μM, BCH 1 or 2 mM
Capan-1 xenografts [11] = assay: Efficacy study in mice bearing Capan-1 xenografts; format: in vivo
[12] = pre-clinical studies; ref Calabrese et al, 2004; cited from earlier work
PARP [13] = molecular target: T2, PARP; assay: PARP activity in permeabilised or intact Capan-1 cells with carboxy metabolite; format: cell-based
MX-1 xenografts [14] = conditions: ref Shen et al, 2013, cited from earlier work
[15] = Capan-1 and MX-1 cells, 30-min pulse with 400 nM
[16] = SW620 cells, 400 nM [14C]rucaparib
[17] = 10 mg kg−1 i.p. daily × five weekly × six

T1 sequence (P11103 2-1013): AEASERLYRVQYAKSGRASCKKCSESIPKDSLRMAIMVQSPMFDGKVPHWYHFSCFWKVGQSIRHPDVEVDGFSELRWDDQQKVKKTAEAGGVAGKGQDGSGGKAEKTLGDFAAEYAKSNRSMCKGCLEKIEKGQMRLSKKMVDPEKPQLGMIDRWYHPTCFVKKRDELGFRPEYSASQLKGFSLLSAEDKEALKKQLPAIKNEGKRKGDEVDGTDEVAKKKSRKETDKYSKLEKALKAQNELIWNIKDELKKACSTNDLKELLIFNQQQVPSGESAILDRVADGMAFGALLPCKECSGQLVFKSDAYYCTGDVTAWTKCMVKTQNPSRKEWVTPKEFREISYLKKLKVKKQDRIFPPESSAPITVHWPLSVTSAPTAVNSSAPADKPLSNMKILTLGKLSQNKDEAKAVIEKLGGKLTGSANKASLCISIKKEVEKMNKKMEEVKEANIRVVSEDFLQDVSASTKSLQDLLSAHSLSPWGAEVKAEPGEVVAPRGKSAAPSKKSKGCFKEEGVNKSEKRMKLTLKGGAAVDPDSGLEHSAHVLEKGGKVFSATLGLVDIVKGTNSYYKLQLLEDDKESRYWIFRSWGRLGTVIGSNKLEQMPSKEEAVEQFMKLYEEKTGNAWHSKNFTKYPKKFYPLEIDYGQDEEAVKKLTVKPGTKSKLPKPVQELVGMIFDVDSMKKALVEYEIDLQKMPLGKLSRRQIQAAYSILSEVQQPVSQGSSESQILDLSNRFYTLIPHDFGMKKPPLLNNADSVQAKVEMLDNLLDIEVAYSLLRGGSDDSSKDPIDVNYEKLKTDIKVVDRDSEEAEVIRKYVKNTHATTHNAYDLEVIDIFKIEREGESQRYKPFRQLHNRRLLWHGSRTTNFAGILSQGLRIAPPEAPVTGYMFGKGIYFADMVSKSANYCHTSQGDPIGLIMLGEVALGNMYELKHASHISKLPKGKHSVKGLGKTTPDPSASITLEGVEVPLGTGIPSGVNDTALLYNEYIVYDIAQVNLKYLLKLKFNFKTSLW
Poly(ADP-ribose) polymerase-1 (Homo sapiens, UniProt P09874), sequence (P09874 whole entry): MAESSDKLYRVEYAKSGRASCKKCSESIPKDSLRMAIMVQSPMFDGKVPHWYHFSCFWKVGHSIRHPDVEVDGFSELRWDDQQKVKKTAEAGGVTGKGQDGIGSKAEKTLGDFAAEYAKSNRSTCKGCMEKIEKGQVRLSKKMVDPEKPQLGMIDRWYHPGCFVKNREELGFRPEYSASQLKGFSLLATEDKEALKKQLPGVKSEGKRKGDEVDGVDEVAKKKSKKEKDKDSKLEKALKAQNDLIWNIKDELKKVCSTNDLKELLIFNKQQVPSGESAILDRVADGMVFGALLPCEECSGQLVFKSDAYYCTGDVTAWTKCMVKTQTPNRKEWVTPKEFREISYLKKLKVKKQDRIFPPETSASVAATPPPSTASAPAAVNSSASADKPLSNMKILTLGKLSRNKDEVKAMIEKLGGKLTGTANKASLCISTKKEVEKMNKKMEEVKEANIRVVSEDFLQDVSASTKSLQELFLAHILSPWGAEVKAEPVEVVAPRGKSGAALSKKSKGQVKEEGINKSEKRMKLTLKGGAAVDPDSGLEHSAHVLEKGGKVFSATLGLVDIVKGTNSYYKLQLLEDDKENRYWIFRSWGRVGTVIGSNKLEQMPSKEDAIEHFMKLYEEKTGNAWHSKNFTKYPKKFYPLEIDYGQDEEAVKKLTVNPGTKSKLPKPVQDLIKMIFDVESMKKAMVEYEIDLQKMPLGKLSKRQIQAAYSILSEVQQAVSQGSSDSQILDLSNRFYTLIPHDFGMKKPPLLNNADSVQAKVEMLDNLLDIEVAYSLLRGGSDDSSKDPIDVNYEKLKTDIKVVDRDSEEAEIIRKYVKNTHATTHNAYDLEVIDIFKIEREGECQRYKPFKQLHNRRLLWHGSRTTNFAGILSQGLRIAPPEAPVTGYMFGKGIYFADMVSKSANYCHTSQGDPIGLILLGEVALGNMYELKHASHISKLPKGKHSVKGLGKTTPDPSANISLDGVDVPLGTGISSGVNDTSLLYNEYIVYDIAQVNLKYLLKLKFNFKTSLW
T2 sequence (P09874 whole entry): as above

CNCc1ccc(-c2[nH]c3cc(F)cc4c3c2CCNC4=O)cc1 [rucaparib]
PARP activity in PBMCs, % of control ([1]; 24 h after single dose 10 mg kg−1 i.p.): > 35%
inhibition at 10 mg/kg ([1]; CAPAN-1, mouse, ip, read-out: initial PARP inhibition in brain): ~50%
reduction in brain PARP activity ([1]; oral dosage, 4 h): > 60%
brain PARP activity after recovery, % of baseline ([1]; oral dosage, after 4 h up to 7 days): 70–80%
PARP activity in PBMCs up to 6 h post-administration ([1]; single dose 10 mg kg−1 i.p.): profound suppression
PARP inhibition in Capan-1 tumours ([2]; 7 days following single dose 10 mg kg−1 i.p.): 70%
PARP inhibition in Capan-1 tumours ([2]; 7 days following single dose 150 mg kg−1 p.o.): 90%
PARP activity in tumours, % of control ([2]; single dose 50 mg kg−1 p.o.): ~10%
PARP activity in tumours, % of control ([2]; single dose 150 mg kg−1 p.o.): ~10%
PARP activity in tumours, % of baseline ([2]; after 48 h, 10 mg kg−1 i.p.): ~30%
PARP activity in tumours, % of baseline ([2]; between 30 min and 24 h, all doses and routes (10 mg kg−1 i.p.; 50, 100, 150 mg kg−1 p.o.)): < 20%
PARP activity 1 week after drug removal [3, 15]: still below baseline
persistence of PARP inhibition after pulse [3, 15]: 72 h
remaining activity at 0.4 µM ([3]; SW-620, read-out: PARP activity, % of control): 35 ± 12%
inhibition at 0.4 µM ([3]; read-out: PARP inhibition, human cancer cell lines (SW620, Capan-1, MX-1), for at least 72 h after 30-min pulse of 400 nM): ≥ 50%
PARP activity below baseline 1 week after initial exposure ([3]; where measured, 30-min pulse): ≥ 30%
PARP activity in peripheral blood mononuclear cells (PARP [4]): still suppressed 3 days after the final of five daily doses
PARP inhibition in livers [5]: not in the livers; also recorded: recovered completely within 24 h
PARP inhibition in MX-1 tumours ([6]; 24 h after single dose 50 mg kg−1 i.p.): > 55%
PARP inhibition in MX-1 tumours ([6]; 24 h after single dose 150 mg kg−1 p.o.): > 80%
PARP inhibition in MX-1 tumours ([6]; 3 days after 150 mg kg−1): 87–92%
PARP inhibition in MX-1 tumours ([6]; 7 days after 150 mg kg−1): 44–74%
weight loss at nadir (MX-1 xenografts [7]): ≤ 4%
dose linearity ([8]; mice): apparent dose linearity
rucaparib in tumour at 3 days ([8]; oral rucaparib): still detectable in most mice
time at which parent drug detectable in plasma ([8]; single dose 10 mg kg−1 i.p., all three mice per group): 30 min
time up to which parent drug detectable in plasma ([8]; single dose 50–150 mg kg−1 p.o., all three mice per group): up to 4 h
efficacy of daily for 5 days every week for 6 weeks vs once a day for 10 days (Capan-1 xenografts [9]): more effective
half-life [10]: 20 min
rucaparib lost by efflux in the first 5–10 min (SW620 cells; SW620 cells after 30-min pulse with 400 nM): up to 50%
intracellular concentration (SW620 cells; SW620 cells exposed to 400 nM [14C]rucaparib, steady state): > 10 µM
time to steady-state intracellular level (SW620 cells; [16]): ≤ 30 min
Vmax of rucaparib uptake (SW620 cells; SW620 cells, 30 min exposure, mean and s.d. of three independent experiments): 469±22 pmol per 10^6 cells per 10 min
uptake with sodium buffer replaced by potassium buffer (SW620 cells; SW620 cells, transport buffer): reduced uptake slightly
uptake with sodium replaced by choline (SW620 cells; SW620 cells, transport buffer): no effect
partial regressions (Capan-1 xenografts [11]; [17]): two persistent partial regressions
time to quadruple in volume (RTV4) (Capan-1 xenografts [11]; [17]): not reached during the 50-day trial
Complete regressions (Capan-1 xenografts [11]; 10 mg kg−1 i.p., d × 5 w × 6): 1/10
Mice remaining at day 40 (Capan-1 xenografts [11]; 10 mg kg−1 i.p., d × 5 w × 6): 6
Complete regressions (Capan-1 xenografts [11]; 10 mg kg−1 i.p., d × 5 w × 6, listed as Rucaparib): one complete tumour regression
Complete regressions (Capan-1 xenografts [11]; 50 mg kg−1 p.o., d × 5 w × 6): 0/10
Mice remaining at day 40 (Capan-1 xenografts [11]; 50 mg kg−1 p.o., d × 5 w × 6): 2
effect on tumour growth (Capan-1 xenografts [11]; 150 mg kg−1 p.o. daily × five weekly × six): equivalent effect on tumour growth to 10 mg kg^−1 i.p.
antitumour effect of once weekly schedule (Capan-1 xenografts [11]; 150 mg kg−1 p.o. once a week for 6 weeks, compared with other schedules): as effective as; also recorded: greatest antitumour effect
Complete regressions (Capan-1 xenografts [11]; 150 mg kg−1 p.o., 1 × w × 6): three complete regressions and 3/10
Mice remaining at day 40 (Capan-1 xenografts [11]; 150 mg kg−1 p.o., 1 × w × 6): 7
Complete regressions (Capan-1 xenografts [11]; 150 mg kg−1 p.o., 3 × w × 6): 1/10
Mice remaining at day 40 (Capan-1 xenografts [11]; 150 mg kg−1 p.o., 3 × w × 6): 5
Complete regressions (Capan-1 xenografts [11]; 150 mg kg−1 p.o., d × 5 w × 6): 1/10
Mice remaining at day 40 (Capan-1 xenografts [11]; 150 mg kg−1 p.o., d × 5 w × 6): 5
Complete regressions (Capan-1 xenografts [11]; 150 mg kg−1 p.o., dx5 every 3w): 1/10
Mice remaining at day 40 (Capan-1 xenografts [11]; 150 mg kg−1 p.o., dx5 every 3w): 5
weight loss (Capan-1 xenografts [11]; Capan-1 tumour-bearing mice, any of the schedules): no significant weight loss
effect on tumour growth (Capan-1 xenografts [11]; other dosing schedules incl. 150 mg kg−1 p.o. daily for five days every 3 weeks): only marginal effect on tumour growth

CN(C)Cc1ccc(-c2nc3cccc4c3n2CCNC4=O)cc1 [AG14361]
tumour distribution and retention [12]: distributed well to the tumour and was retained in the tumour after clearance from the plasma

O=C(O)c1ccc(-c2[nH]c3cc(F)cc4c3c2CCNC4=O)cc1 [4-(8-fluoro-6-oxo-3,4,5,6-tetrahydro-1H-azepino[5,4,3-cd]indol-2-yl)benzoic acid]
PARP inhibition after pre-incubation of intact cells (PARP [13]): did not result in PARP inhibition
metabolite concentration relative to parent drug in plasma ([8]; after single dose of rucaparib): higher concentrations than the parent drug in the plasma
metabolite concentration relative to parent drug in tumour ([8]; after single dose of rucaparib): lower in the tumour

Cn1ncnc1[C@H]1c2n[nH]c(=O)c3cc(F)cc(c23)N[C@@H]1c1ccc(F)cc1 [BMN 673]
efficacy against MX-1 xenografts (MX-1 xenografts [14]; once or twice daily administration): regressions of MX-1 xenografts

NC1(C(=O)O)CC2CCC1C2 (stereo not shown) [BCH]
effect of transport inhibitor on rucaparib uptake (SW620 cells; [16]): neither the nucleoside transport inhibitor, dipyridamole, nor the amino-acid transport inhibitor, BCH, inhibited accumulation

OCCN(CCO)c1nc(N2CCCCC2)c2nc(N(CCO)CCO)nc(N3CCCCC3)c2n1 [dipyridamole]
effect of transport inhibitor on rucaparib uptake (SW620 cells; [16]): neither the nucleoside transport inhibitor, dipyridamole, nor the amino-acid transport inhibitor, BCH, inhibited accumulation

C[C@@H]1O[C@@H](O[C@H]2C[C@@H](O)[C@]3(CO)[C@H]4[C@H](O)C[C@]5(C)[C@@H](C6=CC(=O)OC6)CC[C@]5(O)[C@@H]4CC[C@]3(O)C2)[C@H](O)[C@H](O)[C@H]1O [Ouabain]
effect of transport inhibitor on rucaparib uptake (SW620 cells; [16]): only a very modest effect

C=C1[C@@H](C)[C@H]2[C@H](Cc3ccccc3)NC(=O)[C@]23OC(=O)/C=C/[C@H](O)CCC[C@@H](C)C/C=C/[C@H]3[C@@H]1O [cytochalasin B]
effect of transport inhibitor on rucaparib uptake (SW620 cells; [16]): no effect on uptake

O=C(c1cc(Cc2n[nH]c(=O)c3ccccc23)ccc1F)N1CCN(C(=O)C2CC2)CC1 [olaparib]
efficacy against MX-1 xenografts (MX-1 xenografts [14]; 100 mg kg−1 daily for 28 days): completely ineffective

Source: PMC3992512 (British Journal of Cancer, 2014)
